Reference: patent US5502035A, “N-terminus modified analogs of LHRH” (Tap Holdings Inc., priority 1994, dated 1996)
Non-standard residues stand in square brackets, D forms with d. Residues, ends and D or L forms follow the SMILES beside them. *: point of attachment. Shikimoyl = O=C(C1=C[C@@H](O)[C@@H](O)[C@H](O)C1)*; Tetrahydrofuroyl(2R) = O=C([C@H]1CCCO1)*; dPhe(4-Cl) = N[C@H](Cc1ccc(Cl)cc1)C(=O)O; d2Nal = N[C@H](Cc1ccc2ccccc2c1)C(=O)O; Acetyl(3-pyridyl) = O=C(Cc1cccnc1)*; Lys(iPr) = CC(C)NCCCC[C@H](N)C(=O)O; NMeY = CN[C@@H](Cc1ccc(O)cc1)C(=O)O; Thiophene2carbonyl = O=C(c1cccs1)*; dCit = NC(=O)NCCC[C@@H](N)C(=O)O; d3Pal = N[C@H](Cc1cccnc1)C(=O)O; Isonicotinoyl = O=C(c1ccncc1)*; Nicotinoyl = O=C(c1cccnc1)*; Picolinoyl = O=C(c1ccccn1)*; 2Furoyl = O=C(c1ccco1)*; X1 = O=C([C@@H]1CCCO1)*; X9 = O=C(c1ccc(O)nc1)*; X6 = O=C(c1ccoc1)*

target: T1, LHRH (Rattus norvegicus, UniProt P30969); test: in vitro test for LHRH antagonist potency (pA2); assay type: cell-based; conditions: negative logarithm of the antagonist concentration required to shift the response curve produced by the agonist leuprolide to two-fold higher concentration
T1 construct: endogenous in cells; host or cells: rat pituitary cells (own knowledge of the cited Haviv 1989 method)
T1 sequence (P30969 1-327): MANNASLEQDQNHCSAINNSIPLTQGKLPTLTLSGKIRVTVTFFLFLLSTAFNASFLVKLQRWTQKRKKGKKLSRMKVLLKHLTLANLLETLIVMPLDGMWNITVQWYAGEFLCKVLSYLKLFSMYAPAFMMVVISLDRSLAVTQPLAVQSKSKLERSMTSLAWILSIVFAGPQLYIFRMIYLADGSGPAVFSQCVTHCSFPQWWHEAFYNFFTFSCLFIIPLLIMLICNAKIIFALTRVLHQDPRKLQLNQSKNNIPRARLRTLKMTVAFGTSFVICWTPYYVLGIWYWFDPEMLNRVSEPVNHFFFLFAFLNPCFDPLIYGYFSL
Procedure, shortened: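 Rat LHRH receptor in vitro functional test; pA2 = negative log of the antagonist concentration shifting the leuprolide agonist response curve to two-fold higher concentration.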

First: CC(C)C[C@H](NC(=O)[C@@H](CCCCNC(=O)c1cccnc1)NC(=O)[C@H](Cc1ccc(O)cc1)N(C)C(=O)[C@H](CO)NC(=O)[C@@H](Cc1cccnc1)NC(=O)[C@@H](Cc1ccc(Cl)cc1)NC(=O)[C@@H](Cc1ccc2ccccc2c1)NC(=O)C1=C[C@@H](O)[C@@H](O)[C@H](O)C1)C(=O)N[C@@H](CCCCNC(C)C)C(=O)N1CCC[C@H]1C(=O)N[C@H](C)C(N)=O [Example 71, N-Shikimyl-D2Nal-D4ClPhe-D3Pal-Ser-NMeTyr-DLys(Nic)-Leu-Lys(Isp)-Pro-DAlaNH2] (Shikimoyl-[d2Nal][dPhe(4-Cl)][d3Pal]S[NMeY][dK](Nicotinoyl)L[Lys(iPr)]P[dA]-NH2)
Second: CC(C)C[C@H](NC(=O)[C@@H](CCCCNC(=O)c1cccnc1)NC(=O)[C@H](Cc1ccc(O)cc1)NC(=O)[C@H](CO)NC(=O)[C@@H](Cc1cccnc1)NC(=O)[C@@H](Cc1ccc(Cl)cc1)NC(=O)[C@@H](Cc1ccc2ccccc2c1)NC(=O)C1=C[C@@H](O)[C@@H](O)[C@H](O)C1)C(=O)N[C@@H](CCCCNC(C)C)C(=O)N1CCC[C@H]1C(=O)N[C@H](C)C(N)=O [Example 75, N-Shikimyl-D2Nal-D4ClPhe-D3Pal-Ser-Tyr-DLys(Nic)-Leu-Lys(Isp)-Pro-DAlaNH2] (Shikimoyl-[d2Nal][dPhe(4-Cl)][d3Pal]SY[dK](Nicotinoyl)L[Lys(iPr)]P[dA]-NH2)
The Kb of the first is 1.6-fold lower: 0.00708 nM for the first, 0.0112 nM for the second.

First: CC(C)C[C@H](NC(=O)[C@@H](CCCCNC(=O)c1cccnc1)NC(=O)[C@H](Cc1ccc(O)cc1)N(C)C(=O)[C@H](CO)NC(=O)[C@@H](Cc1cccnc1)NC(=O)[C@@H](Cc1ccc(Cl)cc1)NC(=O)[C@@H](Cc1ccc2ccccc2c1)NC(=O)c1ccco1)C(=O)N[C@@H](CCCCNC(C)C)C(=O)N1CCC[C@H]1C(=O)N[C@H](C)C(N)=O [Example 72a, N-2-Furoyl-D2Nal-D4ClPhe-D3Pal-Ser-NMeTyr-DLys(Nic)-Leu-Lys(Isp)-Pro-DAlaNH2] (2Furoyl-[d2Nal][dPhe(4-Cl)][d3Pal]S[NMeY][dK](Nicotinoyl)L[Lys(iPr)]P[dA]-NH2)
Second: CC(C)C[C@H](NC(=O)[C@@H](CCCCNC(=O)c1cccnc1)NC(=O)[C@H](Cc1ccc(O)cc1)N(C)C(=O)[C@H](CO)NC(=O)[C@@H](Cc1cccnc1)NC(=O)[C@@H](Cc1ccc(Cl)cc1)NC(=O)[C@@H](Cc1ccc2ccccc2c1)NC(=O)c1ccoc1)C(=O)N[C@@H](CCCCNC(C)C)C(=O)N1CCC[C@H]1C(=O)N[C@H](C)C(N)=O [Example 72b, N-3-Furoyl-D2Nal-D4ClPhe-D3Pal-Ser-NMeTyr-DLys(Nic)-Leu-Lys(Isp)-Pro-DAlaNH2] (X6-[d2Nal][dPhe(4-Cl)][d3Pal]S[NMeY][dK](Nicotinoyl)L[Lys(iPr)]P[dA]-NH2)
The Kb of the first is 8.5-fold lower: 0.01 nM for the first, 0.0851 nM for the second.

Going from `CC(C)C[C@H](NC(=O)[C@@H](CCCCNC(=O)c1cccnc1)NC(=O)[C@H](Cc1ccc(O)cc1)N(C)C(=O)[C@H](CO)NC(=O)[C@@H](Cc1cccnc1)NC(=O)[C@@H](Cc1ccc(Cl)cc1)NC(=O)[C@@H](Cc1ccc2ccccc2c1)NC(=O)c1cccs1)C(=O)N[C@@H](CCCCNC(C)C)C(=O)N1CCC[C@H]1C(=O)N[C@H](C)C(N)=O` [Example 72c, N-Thienyl-2-carbonyl-D2Nal-D4ClPhe-D3Pal-Ser-NMeTyr-DLys(Nic)-Leu-Lys(Isp)-Pro-DAlaNH2] (Thiophene2carbonyl-[d2Nal][dPhe(4-Cl)][d3Pal]S[NMeY][dK](Nicotinoyl)L[Lys(iPr)]P[dA]-NH2) to `CC(C)C[C@H](NC(=O)[C@@H](CCCCNC(=O)c1cccnc1)NC(=O)[C@H](Cc1ccc(O)cc1)N(C)C(=O)[C@H](CO)NC(=O)[C@@H](Cc1cccnc1)NC(=O)[C@@H](Cc1ccc(Cl)cc1)NC(=O)[C@@H](Cc1ccc2ccccc2c1)NC(=O)c1cccnc1)C(=O)N[C@@H](CCCCNC(C)C)C(=O)N1CCC[C@H]1C(=O)N[C@H](C)C(N)=O` [Example 72d, N-Nicotinyl-D2Nal-D4ClPhe-D3Pal-Ser-NMeTyr-DLys(Nic)-Leu-Lys(Isp)-Pro-DAlaNH2] (Nicotinoyl-[d2Nal][dPhe(4-Cl)][d3Pal]S[NMeY][dK](Nicotinoyl)L[Lys(iPr)]P[dA]-NH2), the Kb falls from 0.02 nM to 0.00871 nM (2.3-fold).

`CC(C)C[C@H](NC(=O)[C@@H](CCCCNC(=O)c1cccnc1)NC(=O)[C@H](Cc1ccc(O)cc1)N(C)C(=O)[C@H](CO)NC(=O)[C@@H](Cc1cccnc1)NC(=O)[C@@H](Cc1ccc(Cl)cc1)NC(=O)[C@@H](Cc1ccc2ccccc2c1)NC(=O)c1ccccn1)C(=O)N[C@@H](CCCCNC(C)C)C(=O)N1CCC[C@H]1C(=O)N[C@H](C)C(N)=O` [Example 72e, N-Picolinoyl-D2Nal-D4ClPhe-D3Pal-Ser-NMeTyr-DLys(Nic)-Leu-Lys(Isp)-Pro-DAlaNH2] (Picolinoyl-[d2Nal][dPhe(4-Cl)][d3Pal]S[NMeY][dK](Nicotinoyl)L[Lys(iPr)]P[dA]-NH2) and `CC(C)C[C@H](NC(=O)[C@@H](CCCCNC(=O)c1cccnc1)NC(=O)[C@H](Cc1ccc(O)cc1)N(C)C(=O)[C@H](CO)NC(=O)[C@@H](Cc1cccnc1)NC(=O)[C@@H](Cc1ccc(Cl)cc1)NC(=O)[C@@H](Cc1ccc2ccccc2c1)NC(=O)c1ccncc1)C(=O)N[C@@H](CCCCNC(C)C)C(=O)N1CCC[C@H]1C(=O)N[C@H](C)C(N)=O` [Example 72g, N-Isonicotinyl-D2Nal-D4ClPhe-D3Pal-Ser-NMeTyr-DLys(Nic)-Leu-Lys(Isp)-Pro-DAlaNH2] (Isonicotinoyl-[d2Nal][dPhe(4-Cl)][d3Pal]S[NMeY][dK](Nicotinoyl)L[Lys(iPr)]P[dA]-NH2) are within 1.5-fold of each other in Kb: 0.0141 nM for the first, 0.02 nM for the second.

First: CC(C)C[C@H](NC(=O)[C@@H](CCCCNC(=O)c1cccnc1)NC(=O)[C@H](Cc1ccc(O)cc1)N(C)C(=O)[C@H](CO)NC(=O)[C@@H](Cc1cccnc1)NC(=O)[C@@H](Cc1ccc(Cl)cc1)NC(=O)[C@@H](Cc1ccc2ccccc2c1)NC(=O)c1ccc(O)nc1)C(=O)N[C@@H](CCCCNC(C)C)C(=O)N1CCC[C@H]1C(=O)N[C@H](C)C(N)=O [Example 72f, N-(6-Hydroxy)nicotinyl-D2Nal-D4ClPhe-D3Pal-Ser-NMeTyr-DLys(Nic)-Leu-Lys(Isp)-Pro-DAlaNH2] (X9-[d2Nal][dPhe(4-Cl)][d3Pal]S[NMeY][dK](Nicotinoyl)L[Lys(iPr)]P[dA]-NH2)
Second: CC(C)C[C@H](NC(=O)[C@@H](CCCCNC(=O)c1cccnc1)NC(=O)[C@H](Cc1ccc(O)cc1)N(C)C(=O)[C@H](CO)NC(=O)[C@@H](Cc1cccnc1)NC(=O)[C@@H](Cc1ccc(Cl)cc1)NC(=O)[C@@H](Cc1ccc2ccccc2c1)NC(=O)Cc1cccnc1)C(=O)N[C@@H](CCCCNC(C)C)C(=O)N1CCC[C@H]1C(=O)N[C@H](C)C(N)=O [Example 72h, N-(3-Pyridylacetyl)-D2Nal-D4ClPhe-D3Pal-Ser-NMeTyr-DLys(Nic)-Leu-Lys(Isp)- Pro-DAlaNH2] ({Acetyl(3-pyridyl)}-[d2Nal][dPhe(4-Cl)][d3Pal]S[NMeY][dK](Nicotinoyl)L[Lys(iPr)]P[dA]-NH2)
The Kb of the first is 1.6-fold higher: 0.01 nM for the first, 0.00631 nM for the second.

`CC(C)C[C@H](NC(=O)[C@@H](CCCCNC(=O)c1cccnc1)NC(=O)[C@H](CCCCNC(=O)c1cccnc1)NC(=O)[C@H](CO)NC(=O)[C@@H](Cc1cccnc1)NC(=O)[C@@H](Cc1ccc(Cl)cc1)NC(=O)[C@@H](Cc1ccc2ccccc2c1)NC(=O)C1=C[C@@H](O)[C@@H](O)[C@H](O)C1)C(=O)N[C@@H](CCCCNC(C)C)C(=O)N1CCC[C@H]1C(=O)N[C@H](C)C(N)=O` [Example 73, N-Shikimyl-D2Nal-D4ClPhe-D3Pal-Ser-Lys(Nic)-DLys(Nic)-Leu-Lys(Isp)-Pro-DAlaNH2] (Shikimoyl-[d2Nal][dPhe(4-Cl)][d3Pal]SK(Nicotinoyl)[dK](Nicotinoyl)L[Lys(iPr)]P[dA]-NH2) and `CC(C)C[C@H](NC(=O)[C@@H](CCCCNC(=O)c1cccnc1)NC(=O)[C@H](CCCCNC(=O)c1cccnc1)NC(=O)[C@H](CO)NC(=O)[C@@H](Cc1cccnc1)NC(=O)[C@@H](Cc1ccc(Cl)cc1)NC(=O)[C@@H](Cc1ccc2ccccc2c1)NC(=O)c1cccnc1)C(=O)N[C@@H](CCCCNC(C)C)C(=O)N1CCC[C@H]1C(=O)N[C@H](C)C(N)=O` [Example 74, N-Nicotinyl-D2Nal-D4ClPhe-D3Pal-Ser-Lys(Nic)-DLys(Nic)-Leu-Lys(Isp)-Pro-DAlaNH2] (Nicotinoyl-[d2Nal][dPhe(4-Cl)][d3Pal]SK(Nicotinoyl)[dK](Nicotinoyl)L[Lys(iPr)]P[dA]-NH2) are within 1.5-fold of each other in Kb: 0.0447 nM for the first, 0.0562 nM for the second.

First: CC(C)C[C@H](NC(=O)[C@@H](CCCNC(N)=O)NC(=O)[C@H](Cc1ccc(O)cc1)N(C)C(=O)[C@H](CO)NC(=O)[C@@H](Cc1cccnc1)NC(=O)[C@@H](Cc1ccc(Cl)cc1)NC(=O)[C@@H](Cc1ccc2ccccc2c1)NC(=O)[C@@H]1CCCO1)C(=O)N[C@@H](CCCNC(=N)N)C(=O)N1CCC[C@H]1C(=O)N[C@H](C)C(N)=O [Example 76, N-(S)-Tetrahydofur-2-oyl-D2Nal-D4ClPhe-D3Pal-Ser-NMeTyr-DCit-Leu-Arg-Pro-DAlaNH2] (X1-[d2Nal][dPhe(4-Cl)][d3Pal]S[NMeY][dCit]LRP[dA]-NH2)
Second: CC(C)C[C@H](NC(=O)[C@@H](CCCNC(N)=O)NC(=O)[C@H](Cc1ccc(O)cc1)N(C)C(=O)[C@H](CO)NC(=O)[C@@H](Cc1cccnc1)NC(=O)[C@@H](Cc1ccc(Cl)cc1)NC(=O)[C@@H](Cc1ccc2ccccc2c1)NC(=O)[C@H]1CCCO1)C(=O)N[C@@H](CCCNC(=N)N)C(=O)N1CCC[C@H]1C(=O)N[C@H](C)C(N)=O [Example 77, N-(R)-Tetrahydofur-2-oyl-D2Nal-D4ClPhe-D3Pal-Ser-NMeTyr-DCit-Leu-Arg-Pro-DAlaNH2] ({Tetrahydrofuroyl(2R)}-[d2Nal][dPhe(4-Cl)][d3Pal]S[NMeY][dCit]LRP[dA]-NH2)
The Kb of the first is 2.5-fold higher: 0.0355 nM for the first, 0.0141 nM for the second.
